Values after ≈ are worked out from the molar mass of the structure shown.
Key:
[1] = biological target: Voltage-gated inwardly rectifying potassium channel KCNH2 (Homo sapiens, UniProt Q12809); experiment: Inhibition of human ERG
[2] = biological target: CaM kinase II delta/gamma (Rattus norvegicus, UniProt P11730+P15791); experiment: Inhibition of CaMK2gamma/delta in neonatal rat ventricular myocytes assessed as phospholamban phosphorylation after 4 hrs by Hoechst 33342 fluorescence based assay; assay type: cell-based
CaM kinase II alpha/beta = CaM kinase II alpha/beta (Rattus norvegicus, UniProt P08413+P11275); experiment: Inhibition of CaMK2alpha/beta in neonatal rat cortical neurons assessed as phospholamban phosphorylation after 4 hrs by Hoechst 33342 fluorescence-based assay; assay type: protein-complex assay
[3] = Half life in rat liver microsomes; assay type: ADME, microsome
[4] = Half life in dog liver microsomes; assay type: ADME, Canis lupus familiaris, microsome
[5] = Half life in human liver microsomes; assay type: ADME, microsome
[6] = Unbound plasma concentration in rat; assay type: ADME, organism-based
[7] = Unbound plasma concentration in dog; assay type: ADME, organism-based, Canis lupus familiaris
[8] = Unbound plasma concentration in human; assay type: ADME, organism-based
[9] = Thermodynamic aqueous solubility of the compound in pH 2.2; assay type: physicochemical; settings: buffer, read-out: Therm_solubility
[10] = Thermodynamic aqueous solubility of the compound in pH 7.2; assay type: physicochemical; settings: buffer, read-out: Therm_solubility
[11] = Clearance in rat at 1 mg/kg, iv; assay type: ADME, organism-based; settings: in vivo
[12] = Volume of distribution at steady state in rat at 1 mg/kg, iv; assay type: ADME, organism-based; settings: in vivo, read-out: Vdss
[13] = Half life in rat at 1 mg/kg, iv; assay type: ADME, organism-based; settings: in vivo
Cytochrome P450 1A2 = biological target: T1, Cytochrome P450 1A2 (Homo sapiens, UniProt P05177); experiment: Inhibition of CYP1A2 (unknown origin); assay type: ADME
T1 sequence (P05177 whole entry): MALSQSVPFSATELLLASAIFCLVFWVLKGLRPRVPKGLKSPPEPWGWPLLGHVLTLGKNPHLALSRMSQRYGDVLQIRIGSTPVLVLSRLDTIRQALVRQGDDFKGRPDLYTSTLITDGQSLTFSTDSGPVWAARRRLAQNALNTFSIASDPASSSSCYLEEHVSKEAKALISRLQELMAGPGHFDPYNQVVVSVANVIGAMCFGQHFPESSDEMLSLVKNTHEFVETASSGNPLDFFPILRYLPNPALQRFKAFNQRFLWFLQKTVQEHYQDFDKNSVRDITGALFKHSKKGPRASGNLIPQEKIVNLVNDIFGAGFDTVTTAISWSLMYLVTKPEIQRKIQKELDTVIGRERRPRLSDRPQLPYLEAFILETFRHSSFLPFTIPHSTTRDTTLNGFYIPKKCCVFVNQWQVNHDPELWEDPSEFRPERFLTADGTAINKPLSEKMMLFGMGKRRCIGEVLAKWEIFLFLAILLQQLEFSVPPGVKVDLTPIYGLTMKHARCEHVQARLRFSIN

Cytochrome P450 2C9 = Cytochrome P450 2C9 (Homo sapiens, UniProt P11712); experiment: Inhibition of CYP2C9 (unknown origin); assay type: ADME
Cytochrome P450 2C19 = Cytochrome P450 2C19 (Homo sapiens, UniProt P33261); experiment: Inhibition of CYP2C19 (unknown origin); assay type: ADME
Cytochrome P450 2D6 = Cytochrome P450 2D6 (Homo sapiens, UniProt P10635); experiment: Inhibition of CYP2D6 (unknown origin); assay type: ADME
Cytochrome P450 3A4 = Cytochrome P450 3A4 (Homo sapiens, UniProt P08684); experiment: Inhibition of CYP3A4 (unknown origin); assay type: ADME
[14] = AUC (0 to infinity) in rat at 5 mg/kg, po; assay type: ADME, organism-based; design: dose 5 mg/kg, time infinity, route oral; settings: in vivo
[15] = Oral bioavailability in rat at 5 mg/kg; assay type: ADME, organism-based; settings: in vivo

Chain of Voltage-gated inwardly rectifying potassium channel KCNH2 (Q12809 whole entry): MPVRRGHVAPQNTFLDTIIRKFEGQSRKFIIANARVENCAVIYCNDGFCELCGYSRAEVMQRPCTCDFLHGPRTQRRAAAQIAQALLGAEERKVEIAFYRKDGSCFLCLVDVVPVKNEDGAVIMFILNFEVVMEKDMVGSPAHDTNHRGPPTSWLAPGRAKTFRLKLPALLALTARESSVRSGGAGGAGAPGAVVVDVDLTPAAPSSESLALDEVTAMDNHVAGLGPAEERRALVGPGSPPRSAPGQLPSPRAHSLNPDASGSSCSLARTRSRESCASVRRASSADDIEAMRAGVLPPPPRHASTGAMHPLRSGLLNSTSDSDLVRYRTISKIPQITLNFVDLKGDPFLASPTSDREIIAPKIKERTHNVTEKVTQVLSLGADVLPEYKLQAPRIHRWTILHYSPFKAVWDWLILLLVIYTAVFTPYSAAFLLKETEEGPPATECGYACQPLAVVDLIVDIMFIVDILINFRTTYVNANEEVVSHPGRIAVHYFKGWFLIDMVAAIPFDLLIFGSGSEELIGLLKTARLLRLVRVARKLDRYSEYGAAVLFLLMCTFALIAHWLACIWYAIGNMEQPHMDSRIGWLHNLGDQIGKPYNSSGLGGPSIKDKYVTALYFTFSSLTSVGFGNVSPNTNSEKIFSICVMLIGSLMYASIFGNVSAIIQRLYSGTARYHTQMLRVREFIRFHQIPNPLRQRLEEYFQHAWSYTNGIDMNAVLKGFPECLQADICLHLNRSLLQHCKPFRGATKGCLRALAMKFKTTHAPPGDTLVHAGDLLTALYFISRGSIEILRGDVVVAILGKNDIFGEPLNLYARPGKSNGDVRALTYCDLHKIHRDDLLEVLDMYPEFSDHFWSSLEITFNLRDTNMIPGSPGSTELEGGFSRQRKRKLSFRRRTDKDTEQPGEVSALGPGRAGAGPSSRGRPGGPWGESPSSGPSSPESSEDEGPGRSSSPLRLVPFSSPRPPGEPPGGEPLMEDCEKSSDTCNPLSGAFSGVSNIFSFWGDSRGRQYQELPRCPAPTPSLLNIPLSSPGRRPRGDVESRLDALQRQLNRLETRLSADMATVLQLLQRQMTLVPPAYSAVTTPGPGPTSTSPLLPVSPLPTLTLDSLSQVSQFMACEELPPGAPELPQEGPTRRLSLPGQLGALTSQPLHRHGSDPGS
Chain of CaM kinase II alpha/beta (P11275 whole entry): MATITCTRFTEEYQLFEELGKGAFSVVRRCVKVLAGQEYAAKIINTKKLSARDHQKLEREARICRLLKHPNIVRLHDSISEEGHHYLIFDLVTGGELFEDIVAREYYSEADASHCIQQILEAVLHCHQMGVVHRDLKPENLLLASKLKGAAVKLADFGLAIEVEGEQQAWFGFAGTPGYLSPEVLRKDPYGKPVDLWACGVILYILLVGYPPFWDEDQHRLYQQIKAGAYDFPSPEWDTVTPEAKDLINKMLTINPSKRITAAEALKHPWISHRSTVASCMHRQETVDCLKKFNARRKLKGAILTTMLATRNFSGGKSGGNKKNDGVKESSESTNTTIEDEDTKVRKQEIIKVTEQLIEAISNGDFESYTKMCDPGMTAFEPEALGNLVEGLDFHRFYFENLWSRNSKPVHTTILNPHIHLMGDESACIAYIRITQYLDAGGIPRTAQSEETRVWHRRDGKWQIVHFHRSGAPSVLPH
Chain of CaM kinase II alpha/beta (P08413 whole entry): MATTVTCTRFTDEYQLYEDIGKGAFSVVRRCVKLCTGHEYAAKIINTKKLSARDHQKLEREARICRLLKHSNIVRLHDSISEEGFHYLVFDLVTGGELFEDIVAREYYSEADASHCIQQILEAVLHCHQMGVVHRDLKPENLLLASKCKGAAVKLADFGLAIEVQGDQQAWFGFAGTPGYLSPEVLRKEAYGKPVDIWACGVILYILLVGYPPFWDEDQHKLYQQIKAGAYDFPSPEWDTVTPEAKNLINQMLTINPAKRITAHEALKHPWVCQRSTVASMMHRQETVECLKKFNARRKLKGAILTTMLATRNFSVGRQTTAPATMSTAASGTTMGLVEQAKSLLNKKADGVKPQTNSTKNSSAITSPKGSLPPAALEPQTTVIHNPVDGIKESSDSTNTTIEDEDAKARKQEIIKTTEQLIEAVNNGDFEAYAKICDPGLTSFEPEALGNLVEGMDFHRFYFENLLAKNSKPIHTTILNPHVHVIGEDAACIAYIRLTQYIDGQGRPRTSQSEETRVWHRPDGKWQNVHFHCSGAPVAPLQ
Chain of CaM kinase II delta/gamma (P15791 whole entry): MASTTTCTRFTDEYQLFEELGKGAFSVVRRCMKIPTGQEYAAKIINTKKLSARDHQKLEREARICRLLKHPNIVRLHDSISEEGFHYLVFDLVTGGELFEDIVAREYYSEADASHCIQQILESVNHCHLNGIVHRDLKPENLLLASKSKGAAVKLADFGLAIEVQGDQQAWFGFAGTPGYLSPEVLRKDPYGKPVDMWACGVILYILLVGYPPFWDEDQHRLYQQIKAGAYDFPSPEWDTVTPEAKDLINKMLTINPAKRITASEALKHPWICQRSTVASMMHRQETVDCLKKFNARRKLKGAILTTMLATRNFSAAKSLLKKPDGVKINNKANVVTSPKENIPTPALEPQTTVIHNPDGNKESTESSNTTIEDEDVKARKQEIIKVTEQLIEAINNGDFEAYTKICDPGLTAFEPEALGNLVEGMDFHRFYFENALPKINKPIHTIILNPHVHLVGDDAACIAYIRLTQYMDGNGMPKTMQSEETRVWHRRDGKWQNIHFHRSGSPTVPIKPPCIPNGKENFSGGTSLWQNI
Chain of CaM kinase II delta/gamma (P11730 whole entry): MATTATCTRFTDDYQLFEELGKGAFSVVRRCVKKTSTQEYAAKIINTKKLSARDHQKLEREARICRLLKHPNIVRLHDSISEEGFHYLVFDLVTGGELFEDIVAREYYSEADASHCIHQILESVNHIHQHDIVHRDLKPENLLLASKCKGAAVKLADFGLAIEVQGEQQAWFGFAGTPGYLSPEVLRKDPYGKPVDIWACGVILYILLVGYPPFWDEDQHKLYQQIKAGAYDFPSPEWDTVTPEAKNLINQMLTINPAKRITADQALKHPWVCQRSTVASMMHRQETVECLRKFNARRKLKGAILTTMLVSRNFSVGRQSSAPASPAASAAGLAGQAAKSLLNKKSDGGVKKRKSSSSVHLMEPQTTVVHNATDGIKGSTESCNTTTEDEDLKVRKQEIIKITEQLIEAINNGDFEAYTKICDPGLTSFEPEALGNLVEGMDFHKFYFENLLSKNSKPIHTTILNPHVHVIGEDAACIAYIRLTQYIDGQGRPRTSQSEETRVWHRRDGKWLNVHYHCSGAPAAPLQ
Chain of Cytochrome P450 2C9 (P11712 whole entry): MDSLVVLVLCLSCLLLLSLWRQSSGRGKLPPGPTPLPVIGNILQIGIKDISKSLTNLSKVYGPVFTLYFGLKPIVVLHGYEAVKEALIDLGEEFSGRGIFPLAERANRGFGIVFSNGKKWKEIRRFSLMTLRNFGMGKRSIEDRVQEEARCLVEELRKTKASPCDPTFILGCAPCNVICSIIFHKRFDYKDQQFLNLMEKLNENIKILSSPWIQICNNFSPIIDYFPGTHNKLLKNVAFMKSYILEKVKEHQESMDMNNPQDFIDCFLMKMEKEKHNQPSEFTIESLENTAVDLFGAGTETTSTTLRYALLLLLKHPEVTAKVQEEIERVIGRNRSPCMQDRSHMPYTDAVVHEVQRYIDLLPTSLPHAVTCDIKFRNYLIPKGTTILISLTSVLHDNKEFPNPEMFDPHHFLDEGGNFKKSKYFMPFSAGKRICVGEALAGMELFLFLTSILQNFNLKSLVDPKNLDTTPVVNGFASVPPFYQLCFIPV
Chain of Cytochrome P450 2C19 (P33261 whole entry): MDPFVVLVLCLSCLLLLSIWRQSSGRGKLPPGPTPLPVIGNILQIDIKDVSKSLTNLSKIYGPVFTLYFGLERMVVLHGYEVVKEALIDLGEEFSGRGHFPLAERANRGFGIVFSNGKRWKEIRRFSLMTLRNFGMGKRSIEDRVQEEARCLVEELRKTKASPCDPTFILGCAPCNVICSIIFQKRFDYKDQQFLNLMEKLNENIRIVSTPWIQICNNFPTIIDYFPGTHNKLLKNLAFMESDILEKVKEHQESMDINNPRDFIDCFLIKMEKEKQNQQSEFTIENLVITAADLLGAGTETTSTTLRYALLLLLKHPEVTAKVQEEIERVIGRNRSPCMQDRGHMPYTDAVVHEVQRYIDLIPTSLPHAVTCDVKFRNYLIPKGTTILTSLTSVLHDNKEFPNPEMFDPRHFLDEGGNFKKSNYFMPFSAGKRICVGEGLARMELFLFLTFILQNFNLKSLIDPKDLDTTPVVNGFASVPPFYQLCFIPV
Chain of Cytochrome P450 2D6 (P10635 whole entry): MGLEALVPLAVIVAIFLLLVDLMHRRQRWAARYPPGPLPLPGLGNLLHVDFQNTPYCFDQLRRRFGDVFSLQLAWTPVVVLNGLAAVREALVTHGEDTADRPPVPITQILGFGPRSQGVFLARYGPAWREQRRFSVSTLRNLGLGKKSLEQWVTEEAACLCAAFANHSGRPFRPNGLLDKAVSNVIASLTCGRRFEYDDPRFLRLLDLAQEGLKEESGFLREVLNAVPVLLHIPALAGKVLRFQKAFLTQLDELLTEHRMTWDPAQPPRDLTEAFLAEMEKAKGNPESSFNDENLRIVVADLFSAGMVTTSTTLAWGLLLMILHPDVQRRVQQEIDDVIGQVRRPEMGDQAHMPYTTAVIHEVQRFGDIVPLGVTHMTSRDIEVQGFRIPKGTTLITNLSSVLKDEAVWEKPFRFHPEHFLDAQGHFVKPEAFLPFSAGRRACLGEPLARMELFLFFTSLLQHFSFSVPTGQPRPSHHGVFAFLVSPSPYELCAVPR

Structure (SMILES) | IC50 [1] [µM] | EC50 [2] [µM] | EC50 (CaM kinase II alpha/beta) [µM] | half-life [3] [min] | half-life [4] [min] | half-life [5] [min] | fraction unbound [6] | fraction unbound [7] | fraction unbound [8] | solubility thermodynamic [9] [µg/mL] | solubility thermodynamic [10] [µg/mL] | clearance [11] [mL/min/kg] | Vd [12] [L/kg] | half-life [13] [min] | other results
CCN(CC)CCNC(=O)c1ccnc(-c2cnn3ccc(-c4cccs4)nc23)c1 | 1.17 |  |  |  |  |  |  |  |  |  |  |  |  |  | 
CCc1cc(C(=O)NC[C@H](C)N(CC)CC)cc(-c2cnn3ccc(-c4cccs4)nc23)n1 | 3.28 |  |  |  |  |  |  |  |  |  |  |  |  |  | 
CCN(CC)[C@@H](C)CNC(=O)c1cc(-c2cnn3ccc(-c4cccs4)nc23)nc(N2CC(O)C2)c1 | > 30 | 0.0062 | 0.274 | 48 | 27 | 58 | 0.363 | 0.291 | 0.177 | 15000 (≈ 29.7 mM) | 8400 (≈ 16.6 mM) | 80.8 | 22.1 | 353 | 
CCN(CC)[C@@H](C)CNC(=O)c1cc(-c2cnn3ccc(-c4cccs4)nc23)nc(N2CC(OC)C2)c1 |  | 0.0074 | 0.12 | 61 | 43 | 62 | 0.151 | 0.159 | 0.071 | > 20000 | 200 (≈ 0.385 mM) | 25.5 | 7.34 | 258 | IC50 (Cytochrome P450 1A2): > 25 µM; IC50 (Cytochrome P450 2C9): > 25 µM; IC50 (Cytochrome P450 2C19): > 25 µM; IC50 (Cytochrome P450 2D6): > 25 µM; IC50 (Cytochrome P450 3A4): > 25 µM; AUC(0-inf) [14]: 3 µM·h; bioavailability [15]: 73%
CCN(CC)[C@@H](C)CNC(=O)c1ccnc(-c2cnn3ccc(-c4cccs4)nc23)c1 | 0.718 |  |  |  |  |  |  |  |  |  |  |  |  |  | 

— ChEMBL document CHEMBL4184081, “Discovery of potent and selective inhibitors of calmodulin-dependent kinase II (CaMKII)” (Bioorg Med Chem Lett, 2018)
